# Tested on: Alopecurus myosuroides
# Assay: Exemple C: selectivity test in field crops, pre-emergence (weed)
# Type: in vivo
# Conditions: dose 1 Kg m.a./ha, 24 days
# Description: (§1) Exemple C - Essai de sélectivité en grandes cultures avec application herbicide, en prélevée des espèces végétales
# (§2) Dans des pots de 7 X 7 X 8 cm remplis de terre agricole légère, on sème un nombre de graines déterminé en fonction de l'espèce végétale et de la grosseur de la graine.
# (§3) On recouvre ensuite les graines d'une couche de terre d'environ 3 mm d'épaisseur.
# (§4) Les pots sont alors traités par pulvérisation de bouillie en quantité correspondant à une dose volumique d'application de 500 l/ha et contenant la matière active à la concentration désirée.
# (§5) La bouillie a été préparée de la même manière qu'à l'exemple A.
# (§6) Les pots traités sont ensuite placés dans des bacs destinés à recevoir l'eau d'arrosage, en subirrigation, et maintenus pendant 24 jours à température ambiante sous 70 % d'humidité relative.
# (§7) Le relevé est effectué de la façon suivante:
# (§8) Au bout de 24 jours, on mesure un pourcentage (D) de destruction du nombre de pieds dans le pot traité par rapport au nombre de plantes dans les pots non traités (témoin). On mesure, sur les plantes traitées restantes, le pourcentage de réduction de taille (RT) par rapport aux plantes témoins.
# (§9) Le pourcentage de volume foliaire non détruit par le produit est donc donné par la formule: ([100-D] X [100-RT])/(100)= A [formula]
# (§10) Cette valeur A est transformée en notation de 0 à 5 selon l'échelle suivante:
# (§11) Ainsi, un produit est jugé comme sélectif vis à vis de la culture lorsque la valeur A notée est de 0 ou 1.
# (§12) Les résultats obtenus sont présentés dans l'exemple C pour des doses d'application de 500, 1000, 2000 ou 4000 g de matière active par hectare selon les produits.
# (§13) Les espèces végétales utilisées dans cet exemple sont: […]
row,Compound,Notation de l'activité herbicide ALO
1,C=C(CS(=O)(=O)c1cc(C)sc1C)c1ccccc1 [compound 51],4 (10 à 30)
2,Cc1ccsc1S(=O)(=O)CC(O)(CBr)c1ccccc1 (centres unmarked) [compound 63],3 (30 à 50)
3,O=S(=O)(CC(O)(CBr)c1cccc(Cl)c1)c1ccsc1 (centres unmarked) [compound 64],3 (30 à 50)

# Tested on: Digitaria sanguinalis
# Assay: as above
# Type: in vivo
# Conditions: dose 1 Kg m.a./ha, 24 days
# Description: as §1, §2, §3, §4, §5, §6, §7, §8, §9, §10, §11, §12, §13
row,Compound,Notation de l'activité herbicide DIG
1,C=C(CS(=O)(=O)c1cc(C)sc1C)c1ccccc1 [compound 51],5 (O à 10)
2,Cc1ccsc1S(=O)(=O)CC(O)(CBr)c1ccccc1 (centres unmarked) [compound 63],5 (O à 10)
3,O=S(=O)(CC(O)(CBr)c1cccc(Cl)c1)c1ccsc1 (centres unmarked) [compound 64],5 (O à 10)

# Tested on: Echinochloa crus-galli
# Assay: as above
# Type: in vivo
# Conditions: dose 1 Kg m.a./ha, 24 days
# Description: as §1, §2, §3, §4, §5, §6, §7, §8, §9, §10, §11, §12, §13
row,Compound,Notation de l'activité herbicide ECh
1,C=C(CS(=O)(=O)c1cc(C)sc1C)c1ccccc1 [compound 51],4 (10 à 30)
2,O=S(=O)(CC(O)(CBr)c1cccc(Cl)c1)c1ccsc1 (centres unmarked) [compound 64],5 (O à 10)

# Tested on: Panicum milicaeum
# Assay: as above
# Type: in vivo
# Conditions: dose 1 Kg m.a./ha, 24 days
# Description: as §1, §2, §3, §4, §5, §6, §7, §8, §9, §10, §11, §12, §13
row,Compound,Notation de l'activité herbicide PAN
1,C=C(CS(=O)(=O)c1cc(C)sc1C)c1ccccc1 [compound 51],4 (10 à 30)
2,Cc1ccsc1S(=O)(=O)CC(O)(CBr)c1ccccc1 (centres unmarked) [compound 63],4 (10 à 30)
3,O=S(=O)(CC(O)(CBr)c1cccc(Cl)c1)c1ccsc1 (centres unmarked) [compound 64],5 (O à 10)

# Tested on: Setaria faberii
# Assay: as above
# Type: in vivo
# Conditions: dose 1 Kg m.a./ha, 24 days
# Description: as §1, §2, §3, §4, §5, §6, §7, §8, §9, §10, §11, §12, §13
row,Compound,Notation de l'activité herbicide SET
1,C=C(CS(=O)(=O)c1cc(C)sc1C)c1ccccc1 [compound 51],4 (10 à 30)
2,Cc1ccsc1S(=O)(=O)CC(O)(CBr)c1ccccc1 (centres unmarked) [compound 63],5 (O à 10)
3,O=S(=O)(CC(O)(CBr)c1cccc(Cl)c1)c1ccsc1 (centres unmarked) [compound 64],5 (O à 10)

# Tested on: Sorghum halepense
# Assay: as above
# Type: in vivo
# Conditions: dose 1 Kg m.a./ha, 24 days
# Description: as §1, §2, §3, §4, §5, §6, §7, §8, §9, §10, §11, §12, §13
row,Compound,Notation de l'activité herbicide SOR
1,C=C(CS(=O)(=O)c1cc(C)sc1C)c1ccccc1 [compound 51],4 (10 à 30)
2,Cc1ccsc1S(=O)(=O)CC(O)(CBr)c1ccccc1 (centres unmarked) [compound 63],5 (O à 10)
3,O=S(=O)(CC(O)(CBr)c1cccc(Cl)c1)c1ccsc1 (centres unmarked) [compound 64],2 (50 à 70)

# Tested on: blé
# Assay: Exemple C: selectivity test in field crops, pre-emergence (crop); further: ranges in brackets are in %
# Type: in vivo
# Conditions: dose 1 Kg m.a./ha, 24 days, 0 or 1 = selective
# Description: as §1, §2, §3, §4, §5, §6, §7, §8, §9, §10, §11, §12
# (§14) Les espèces végétales utilisées dans cet exemple sont:
# (§15) Comme on peut le voir sur le tableau de résultats de cet exemple C, de nombreux produits présentent une excellente activité antigraminée de prélevée tout en montrant une excellente sélectivité pour 1 ou 2 ou 3 ou 4 des 4 cultures testées = blé, maïs, riz, soja.
row,Compound,Notation de l'activité herbicide TRZ
1,C=C(CS(=O)(=O)c1cc(C)sc1C)c1ccccc1 [compound 51],0 (90 à 100)
2,Cc1ccsc1S(=O)(=O)CC(O)(CBr)c1ccccc1 (centres unmarked) [compound 63],3 (30 à 50)
3,O=S(=O)(CC(O)(CBr)c1cccc(Cl)c1)c1ccsc1 (centres unmarked) [compound 64],0 (90 à 100)

# Tested on: maïs
# Assay: as above
# Type: in vivo
# Conditions: dose 1 Kg m.a./ha, 24 days, 0 or 1 = selective
# Description: as §1, §2, §3, §4, §5, §6, §7, §8, §9, §10, §11, §12, §14, §15
row,Compound,Notation de l'activité herbicide ZEA
1,C=C(CS(=O)(=O)c1cc(C)sc1C)c1ccccc1 [compound 51],0 (90 à 100)
2,Cc1ccsc1S(=O)(=O)CC(O)(CBr)c1ccccc1 (centres unmarked) [compound 63],2 (50 à 70)
3,O=S(=O)(CC(O)(CBr)c1cccc(Cl)c1)c1ccsc1 (centres unmarked) [compound 64],2 (50 à 70)

# Tested on: riz
# Assay: as above
# Type: in vivo
# Conditions: dose 1 Kg m.a./ha, 24 days, 0 or 1 = selective
# Description: as §1, §2, §3, §4, §5, §6, §7, §8, §9, §10, §11, §12, §14, §15
row,Compound,Notation de l'activité herbicide ORY
1,C=C(CS(=O)(=O)c1cc(C)sc1C)c1ccccc1 [compound 51],0 (90 à 100)
2,Cc1ccsc1S(=O)(=O)CC(O)(CBr)c1ccccc1 (centres unmarked) [compound 63],4 (10 à 30)
3,O=S(=O)(CC(O)(CBr)c1cccc(Cl)c1)c1ccsc1 (centres unmarked) [compound 64],2 (50 à 70)

# Tested on: soja
# Assay: as above
# Type: in vivo
# Conditions: dose 1 Kg m.a./ha, 24 days, 0 or 1 = selective
# Description: as §1, §2, §3, §4, §5, §6, §7, §8, §9, §10, §11, §12, §14, §15
row,Compound,Notation de l'activité herbicide GLY
1,C=C(CS(=O)(=O)c1cc(C)sc1C)c1ccccc1 [compound 51],0 (90 à 100)
2,Cc1ccsc1S(=O)(=O)CC(O)(CBr)c1ccccc1 (centres unmarked) [compound 63],0 (90 à 100)
3,O=S(=O)(CC(O)(CBr)c1cccc(Cl)c1)c1ccsc1 (centres unmarked) [compound 64],0 (90 à 100)

# — patent publication EP0435794A1, “Alkenyl- or heteroaryl thio, sulfone, sulfoxy herbicides” (RHONE-POULENC AGROCHIMIE, priority 1989, dated 1991)
